Reference: the supplement of paper PMC6470124

Assays:
[1] = absolute recovery over vacuum-assisted evaporative concentration; higher = better recovery; settings: enrichment method: VEC
Summary of the method: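 Standards were spiked into water samples before concentration, after concentration or not at all; volumes were 6 mL influent, 15 mL effluent and 60 mL surface or nanopure water. Spiking levels were 200 ng/L for nanopure and surface water and 1000 ng/L for wastewater, adjusted by class and compound. After evaporation at 55 °C and 20 mbar to about 0.3 mL, samples were brought to 0.4 mL, centrifuged, given internal standards and analysed by LC-HRMS/MS. Absolute recovery equals (response ratio pre − unspiked)/(post − unspiked) × 100, based on averages of ≥ 2 replicates.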

[2] = absolute recovery over mixed-bed multilayer solid-phase extraction; higher = better recovery; settings: enrichment method: SPE
Summary of the method: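 A three-layer mixed-bed cartridge was loaded with 100–250 mL of wastewater (adjusted to pH 6.5, glass-fibre filtered) or 1000 mL of unfiltered nanopure water, then eluted with basic and subsequently acidic ethyl acetate/methanol. Standards were introduced pre-extraction, post-extraction, or not at all, at 200 ng/L for water and 1000 ng/L for wastewater, except for certain classes. Once internal standards had been added, both ionisation modes were run by liquid chromatography with high-resolution tandem mass spectrometry. Absolute recovery was derived from background-corrected response ratios of pre- against post-spiked samples, averaged over at least two replicates.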

[3] = LC retention time (Atlantis T3, 5-95% MeOH gradient, 0.1% formic acid); higher = more retained / less polar
Summary of the method: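 Retention times refer to reference standards measured by liquid chromatography with high-resolution tandem mass spectrometry. Separation was on an Atlantis T3 C18 column (3 × 150 mm, 3 μm) at 0.3 mL/min with a 5 to 95% methanol gradient over 17.5 min, both solvents carrying 0.1% formic acid. Positive and negative electrospray were run separately on a QExactive Plus, and TraceFinder peak integration (5 ppm tolerance, at least three points per peak) was reviewed by hand.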

absolute recovery ([1]; wastewater effluent) [%] | absolute recovery ([1]; wastewater influent) [%] | absolute recovery ([2]; nanopure water) [%] | absolute recovery ([2]; surface water) [%] | absolute recovery ([2]; wastewater effluent) [%] | absolute recovery ([2]; wastewater influent) [%] | LC retention time [3] [min] | SMILES
96.5 | 104 | 26 | 29.7 | 29.2 | 56.1 | 10.1 | CN1CCN(C)C1=O [1-3-Dimethyl-2-imidazolidinon]
126 | 73 | 99.2 | 45.5 | 60.4 | 67.3 | 11.6 | [O-]n1nnc2ccccc21 [1-Hydroxybenzotriazole H]
83.9 | 82.1 | 89.4 | 93.1 | 88.8 | 103 | 14 | Cn1nnc2ccccc21 [1-Methyl-Benzotriazol]
107 | 102 | 4.8 | 0.3 | 0.9 | 1.7 | 6.6 | CCCS(=O)(=O)[O-] [1-Propanesulfonate]
86.4 | 116 | 82.7 | 84.1 | 85.4 | 122 | 16.2 | Clc1ccc(C(c2ccccc2)N2CC[NH2+]CC2)cc1 (stereo unspecified) [1-[(4-Chlorophenyl)phenylmethyl]piperazine]
122 | 88.2 | 88.2 |  | 95.1 |  | 9.37 | O=c1ccn(C2OC(CO)C(O)C2(F)F)c(=O)[nH]1 (stereo unspecified) [2-2-Difluorodeoxyuridin]
101 | 91.8 | 102 | 100 | 92.7 | 84.6 | 13.9 | CC(=O)OC1C(C)OC(n2cc(F)c(N)nc2=O)C1OC(C)=O (stereo unspecified) [2-3-di-O-acetyl-5-deoxy-5-fluorocytidin]
108 | 132 | 107 | 101 | 99.8 | 96.3 | 16.5 | Cc1ccc(NC=O)c(C)c1 [2-4-dimethylphenylformamid]
102 | 107 | 93.7 | 94.9 | 93.8 | 93.9 | 12.7 | NC(=O)c1c(Cl)cccc1Cl [2-6-Dichlorbenzamid]
108 | 112 | 93.9 | 77.6 | 77.2 | 88.8 | 8.38 | O=S(=O)([O-])c1ccc2ccc(S(=O)(=O)[O-])cc2c1 [2-7-Naphthalenedisulfonic-acid]
108 |  | 45.5 | 7.1 | 10.1 |  | 3.5 | C[NH+](C)C(C)(C)CO [2-(Dimethylamino)-2-methyl-1-propanol]
101 | 106 | 102 | 112 | 102 | 102 | 9.03 | COc1nc(C)nc(N)n1 [2-Amino-4-methoxy-6-methyl-1-3-5-triazin]
103 | 99.3 | 90.5 | 90.3 | 91.9 | 92 | 9.5 | Nc1[nH]c2ccccc2[nH+]1 [2-Aminobenzimidazol]
93.6 | 27 | 12 | 11 | 11.7 | 17 | 7.95 | Cn1sccc1=O [2-Methyl-4-isothiazolin-3-one]
114 | 88.2 |  |  | 92.6 |  | 17.2 | O=S(=O)([O-])c1ccc2ccccc2c1 [2-Naphthalenesulfonic-acid]
104 | 97.2 | 95.4 | 91.9 | 68.2 | 82.4 | 15.4 | Nc1c(I)c(N)c(I)c(C(=O)[O-])c1I [3-5-Diamino-2-4-6-triiodobenzoic-acid]
104 | 99.2 |  | 92.6 | 97.9 | 94.4 | 17.6 | O=C([O-])c1cc(Br)c([O-])c(Br)c1 [3-5-Dibromo-4-hydroxybenzoic-acid]
90.5 | 96.4 | 69.5 | 39.2 | 55.8 | 74.5 | 13.2 | [NH3+]C(Cc1cc(I)c(O)c(I)c1)C(=O)[O-] [3-5-Diiodo-L-tyrosine]
98.8 | 102 | 103 |  | 96.1 | 99.4 | 19.8 | O=C([O-])c1cccc(Oc2ccccc2)c1 [3-Phenoxybenzoic-acid]
30 |  | 14.5 | 3.4 | 9.1 | 7.8 | 4.15 | Nc1ccc(C=Cc2ccc(N)cc2S(=O)(=O)[O-])c(S(=O)(=O)[O-])c1 [4-4-diamino-2,2-stilbenedisulfonic-acid]
19.3 |  | 93 | 62.5 | 66.5 | 60.8 | 22.7 | CCCCCCCCn1sc(Cl)c(Cl)c1=O [4-5-Dichloro-2-n-octyl-isothiazol-3(2H)-on (=DCOIT)]

absolute recovery ([1]; wastewater effluent) [%] | absolute recovery ([1]; wastewater influent) [%] | absolute recovery ([2]; nanopure water) [%] | absolute recovery ([2]; surface water) [%] | absolute recovery ([2]; wastewater effluent) [%] | absolute recovery ([2]; wastewater influent) [%] | LC retention time [3] [min] | SMILES
84.1 | 75.5 | 37.8 | 55.7 | 24.6 | 37.4 | 9.66 | Cc1c(N)c(=O)n(-c2ccccc2)n1C [4-Aminopyrin (=4-Aminoantipyrin, 4-AA)]
89.8 | 92.9 | 72.8 | 79.5 | 77 | 88.2 | 9.33 | Cc1c(N(C)C)c(=O)n(-c2ccccc2)n1C [4-Dimethylaminoantipyrin (=Aminopyrin)]
92.4 | 130 | 71.9 | 61.7 | 54.6 | 52.7 | 4.55 | CC1(C)CC(O)CC(C)(C)[NH+]1CCO [4-Hydroxy-1-(2-hydroxyethyl)-2-2-6-6-tetramethylpiperidine]
95.8 | 92.8 | 73.5 | 81.4 | 76.2 | 83.3 | 19.2 | O=C([O-])Cc1ccccc1Nc1c(Cl)cc(O)cc1Cl [4-Hydroxydiclofenac A]
93.8 | 96.6 | 95.5 | 80.7 | 80.1 | 84.8 | 10.4 | CC(C)c1ccc(N)cc1 [4-Isopropylanilin]
107 | 58.4 | 4.4 | 5.9 | 5.4 | 4.3 | 3.63 | Nc1[nH]c(=O)ncc1F [5-Fluoro-Cytosine]
79.1 | 69.1 | 5 | 7.7 | 7.4 | 9.3 | 5.37 | O=c1[nH]cc(F)c(=O)[nH]1 [5-Fluorouracil]
102 | 100 | 95.7 |  |  | 97.5 | 15.4 | Cc1ccc2[nH]nnc2c1 [5-Methyl-Benzotriazol]
94.9 | 141 | 109 | 34.2 | 90.9 | 100 | 6.89 | Cc1cncc(C(=O)[O-])c1 [5-Methylpyridine-3-carboxylic-acid]
143 | 97.7 | 69.6 | 89.6 | 97.8 | 77.9 | 23.2 | O=C([O-])C=C(F)C(F)(F)C(F)(F)C(F)(F)C(F)(F)C(F)(F)F [6-2-FTUCA]
95.6 | 96.5 | 47.7 |  |  | 37.9 | 6.11 | C=CC1=C(C(=O)[O-])N2C(=O)C([NH3+])C2SC1 (stereo unspecified) [7-Amino-3-vinyl-3-cephem-4-carboxylic-acid]
88.9 | 27.7 | 90.6 | 103 | 84.8 | 90.8 | 24.5 | CC1(C(=O)[O-])CCC2(C)CCC3(C)C(=CC(=O)C4C5(C)CCC(O)C(C)(C)C5CCC43C)C2C1 (stereo not drawn) [18-beta-Glycyrrhetinic-acid]
114 | 114 | 94.8 | 93.2 | 93.2 | 90.8 | 13.9 | CC(=O)N(C)N(C(=O)C(=O)N(C)C)c1ccccc1 [AMDOPH]
97.8 | 99.4 | 76.1 | 59.7 | 75.6 | 116 | 21.4 | COc1ccc2c(c1)c(CC(=O)OCC(=O)[O-])c(C)n2C(=O)c1ccc(Cl)cc1 [Acemetacin]
106 | 107 | 90.8 | 95.6 | 94.2 | 96.6 | 10.5 | CC(=O)Nc1nnc(S([NH-])(=O)=O)s1 [Acetazolamide]
99.1 | 97 | 93.2 | 96.3 | 96 | 99.6 | 13.2 | COc1cc2[nH+]c(N(C)CCCNC(=O)C3CCCO3)nc(N)c2cc1OC (stereo unspecified) [Alfuzosin]
87.1 | 91.1 | 67 | 82.7 | 68.3 | 72.9 | 16.7 | COCCCOc1cc(CC(CC([NH3+])C(O)CC(C(=O)NCC(C)(C)C(N)=O)C(C)C)C(C)C)ccc1OC (stereo unspecified) [Aliskiren]
104 | 114 | 90.7 | 79.3 | 86.2 | 87.2 | 12.1 | [NH3+]C12CC3CC(CC(C3)C1)C2 [Amantadine]
112 | 98.2 | 94.7 | 101 | 93.3 | 111 | 18 | COc1cc(OC)nc(NC(=O)[N-]S(=O)(=O)N(C)S(C)(=O)=O)n1 [Amidosulfuron]
106 | 102 | 93.1 | 94.8 | 93.4 | 92.7 | 10.4 | CC[NH+]1CCCC1CNC(=O)c1cc(S(=O)(=O)CC)c(N)cc1OC (stereo unspecified) [Amisulprid]
105 | 105 | 99.2 | 95.3 | 93.2 | 93.4 | 11.2 | CC[N+]1([O-])CCCC1CNC(=O)c1cc(S(=O)(=O)CC)c(N)cc1OC (stereo unspecified) [Amisulpride-N-Oxide]

SMILES | absolute recovery ([1]; wastewater effluent) [%] | absolute recovery ([1]; wastewater influent) [%] | absolute recovery ([2]; nanopure water) [%] | absolute recovery ([2]; surface water) [%] | absolute recovery ([2]; wastewater effluent) [%] | absolute recovery ([2]; wastewater influent) [%] | LC retention time [3] [min]
Clc1cccc(N2CC[NH2+]CC2)c1 [1-(3-Chlorophenyl)-piperazine] | 103 | 99.6 | 70.3 | 74.7 | 68.1 | 79.3 | 12.6
FC(F)(F)c1cccc(N2CC[NH2+]CC2)c1 [1-(3-Trifluoromethylphenyl)-piperazine] | 97.4 | 93 | 66 | 71.9 | 66.4 | 69.9 | 13.6
c1ccc(CN2CC[NH2+]CC2)cc1 [1-Benzylpiperazin] | 109 | 140 | 58.2 | 60.9 | 56.2 | 72.5 | 6.45
O=C([O-])COc1ccc(Cl)cc1Cl [2-4-D] | 103 | 106 | 95.6 | 94 | 93.5 | 91.2 | 19.3
CCCCCCCCn1sccc1=O [2-n-Octyl-4-isothiazolin-3-on (=OIT)] | 97.9 | 45.2 | 93 | 91.6 | 91.8 | 90.7 | 20.3
Cn1sc(Cl)cc1=O [5-Chloro-2-methyl-4-isothiazolin-3-on (=CMI)] | 65.2 |  | 85.1 | 56.7 | 66.5 |  | 12.4
CC(=NC#N)N(C)Cc1ccc(Cl)nc1 [Acetamiprid] | 102 | 90.8 | 110 | 93.8 | 89 |  | 14.3
CCOCN(C(=O)CCl)c1c(C)cccc1CC [Acetochlor B] | 83.4 | 76.8 | 94 | 93.3 | 91.1 | 91.6 | 20.4
CNC(=O)ON=CC(C)(C)SC [Aldicarb] | 99.1 | 91.7 | 88.2 |  |  |  | 16
